# Measured values published in ChEMBL document CHEMBL3045732, “Structural requirements for repellency: norsesquiterpenes and sesquiterpenoid derivatives of nootkatone against the Formosan subterranean termite (Isoptera: Rhinotermitidae)” (2010).
# Test system: Coptotermes formosanus
# Test: Insect repellant activity against Coptotermes formosanus assessed as repellency threshold concentration measured up to 24 hr by multiple-step triage method
# Type: functional
row,Structure (SMILES),MEC [µg/g]
1,"C=C(C)[C@@H]1CCC2CC3(C[C@@H](C)[C@]2(C)C1)OCCO3 (some centres not stated) [1,10-DIHYDRONOOTKATONE KETAL]",1.56
2,C=C(C)[C@@H]1CC[C@@]2(C)C(C)=CC(=O)C=C2C1,50
3,C=C(C)[C@@H]1CC[C@@]2(C)C=CC(=O)C=C2C1,25
4,C=C(C)[C@@H]1CC[C@]2(C)CCC(=O)C=C2C1,12.5
5,C=C(C)[C@@H]1CCC2=C[C@@H](O)C[C@@H](C)[C@]2(C)C1 [BETA-NOOTKATOL],100
6,C=C(C)[C@@H]1CCC2=CC(=O)C[C@@H](C)[C@]2(C)C1 [NOOTKATONE],12.5
7,"CC(C)[C@@H]1CCC2=CC(=O)C[C@@H](C)[C@]2(C)C1 [11,12-DIHYDRONOOTKATONE]",6.25
8,C=C(C)[C@@H]1CCC2C[C@@H](O)C[C@@H](C)[C@]2(C)C1 (some centres not stated),50
9,"C=C(C)[C@@H]1CCC2CC(=O)C[C@@H](C)[C@]2(C)C1 (some centres not stated) [1,10-DIHYDRONOOTKATONE]",1.56
10,CC(C)[C@@H]1CC[C@@]2(C)C=CC(=O)C=C2C1,25
11,CC(C)[C@@H]1CCC2CC(=O)C[C@@H](C)[C@]2(C)C1 (some centres not stated) [TETRAHYDRONOOTKATONE],1.56
12,CC1=CC(=O)C=C2C[C@H](C(C)C)CC[C@@]12C,25
13,CC(C)[C@@H]1CCC2CC3(C[C@@H](C)[C@]2(C)C1)OCCO3 (some centres not stated) [TETRAHYDRONOOTKATONE KETAL],1.56
14,"CC(C)[C@@H]1CCC2=CC(=O)C[C@H](C)[C@@]2(C)C1 [4BETA,5BETA-1,10-DIHYDRONOOTKATONE]",3.25
15,C=C(C)[C@@H]1CC[C@]2(C)C(=CC(=O)C[C@@H]2C)C1,12.5
16,CC(C)[C@@H]1CC[C@]2(C)C(=CC(=O)C[C@@H]2C)C1,6.25
17,C=C(C)[C@@H]1CC[C@@]2(C)CCC(=O)C=C2C1,6.25
